Measured values from patent US9238715B2, “Polymerizable composition for ophthalmic and medical use and antimicrobial composition obtained by polymerizing the polymerizable composition” (NANYANG TECHNOLOGICAL UNIVERSITY, priority 2010, dated 2016).

Columns and labels:
Assay in all cases: MIC by microtiter dilution in Mueller Hinton Broth
Settings in all cases: 5×10^5 CFU/ml, 37° C., 18 hours, A600
[1] = tested on: E. Coli; assay type: cell-based, Escherichia coli
Description: (§1) Minimal inhibitory concentrations (MIC) were determined by a standard microtiter dilution method in Mueller Hinton Broth (MHB) medium. Bacteria cells were grown overnight at 37° C. in MHB medium and diluted to a bacteria concentration of 10^6 colony forming units (CFU)/ml. The bacteria concentration was adjusted to 5×10^5 CFU/ml by adding 100 μl of a suspension of the bacteria cultured under the above conditions to 100 μl of a polylysine aqueous solution diluted to 10^3 to 1 μg/ml, and samples were prepared. The samples were incubated at 37° C. for 18 hours, and the MICs (lowest polylysine concentration that inhibited cell growth) after 18 hours were determined.

[2] = tested on: S. marcescence; assay type: cell-based, Serratia marcescens
Description: as §1

[3] = tested on: C. albicans; assay type: cell-based, Candida albicans
Description: as §1

[4] = tested on: S. aureus; assay type: cell-based, Staphylococcus aureus
Description: as §1

[5] = tested on: F. solani; assay type: cell-based, Fusarium solani
Description: as §1

[6] = tested on: P. aeruginosa; assay type: cell-based, Pseudomonas aeruginosa
Description: as §1

Row | Substance | MIC [1] | MIC [2] | MIC [3] | MIC [4] | MIC [5] | MIC [6]
1 | epsilon-polylysine [EPL] | 7.8 µg/mL | 15.6 µg/mL | 54 µg/mL | 7.8 µg/mL | 109 µg/mL | 7.8 µg/mL
2 | methacrylated epsilon-polylysine [MA-EPL] | 7.8 µg/mL | 15.6 µg/mL | 27 µg/mL |  | 54 µg/mL | 7.8 µg/mL
